Results taken from patent US9730943B2, “Alkoxy-substituted 2,3-dihydroimidazo[1,2-C]quinazolines” (BAYER INTELLECTUAL PROPERTY GMBH, priority 2010, dated 2017).

Columns and labels:
[1] = target: T1, PI3Kβ (Homo sapiens, UniProt P42338); test: PI3Kβ kinase assay (HTRF based PI3K inhibition assay); format: biochemical; settings: for inhibition at 0.93 µM: 0.93 μM compound, read-out: PI3K beta average % Inhibition at 0.93 μM; for IC50: complex of human p110β and human p85α, 10 μM ATP, 10 μM PIP2, read-out: average IC50 in the PI3K beta biochemical assay; for PI3K beta average IC50/ PI3K alpha average IC50: ratio of PI3K beta IC50 to PI3K alpha IC50 (A2 and A1)
T1 construct: N-terminal His6-tagged recombinant full-length human p110β; His6 (N); purchased Millipore 14-603; host or cells: baculovirus infected Sf21 insect cells
T1 sequence (P42338 whole entry): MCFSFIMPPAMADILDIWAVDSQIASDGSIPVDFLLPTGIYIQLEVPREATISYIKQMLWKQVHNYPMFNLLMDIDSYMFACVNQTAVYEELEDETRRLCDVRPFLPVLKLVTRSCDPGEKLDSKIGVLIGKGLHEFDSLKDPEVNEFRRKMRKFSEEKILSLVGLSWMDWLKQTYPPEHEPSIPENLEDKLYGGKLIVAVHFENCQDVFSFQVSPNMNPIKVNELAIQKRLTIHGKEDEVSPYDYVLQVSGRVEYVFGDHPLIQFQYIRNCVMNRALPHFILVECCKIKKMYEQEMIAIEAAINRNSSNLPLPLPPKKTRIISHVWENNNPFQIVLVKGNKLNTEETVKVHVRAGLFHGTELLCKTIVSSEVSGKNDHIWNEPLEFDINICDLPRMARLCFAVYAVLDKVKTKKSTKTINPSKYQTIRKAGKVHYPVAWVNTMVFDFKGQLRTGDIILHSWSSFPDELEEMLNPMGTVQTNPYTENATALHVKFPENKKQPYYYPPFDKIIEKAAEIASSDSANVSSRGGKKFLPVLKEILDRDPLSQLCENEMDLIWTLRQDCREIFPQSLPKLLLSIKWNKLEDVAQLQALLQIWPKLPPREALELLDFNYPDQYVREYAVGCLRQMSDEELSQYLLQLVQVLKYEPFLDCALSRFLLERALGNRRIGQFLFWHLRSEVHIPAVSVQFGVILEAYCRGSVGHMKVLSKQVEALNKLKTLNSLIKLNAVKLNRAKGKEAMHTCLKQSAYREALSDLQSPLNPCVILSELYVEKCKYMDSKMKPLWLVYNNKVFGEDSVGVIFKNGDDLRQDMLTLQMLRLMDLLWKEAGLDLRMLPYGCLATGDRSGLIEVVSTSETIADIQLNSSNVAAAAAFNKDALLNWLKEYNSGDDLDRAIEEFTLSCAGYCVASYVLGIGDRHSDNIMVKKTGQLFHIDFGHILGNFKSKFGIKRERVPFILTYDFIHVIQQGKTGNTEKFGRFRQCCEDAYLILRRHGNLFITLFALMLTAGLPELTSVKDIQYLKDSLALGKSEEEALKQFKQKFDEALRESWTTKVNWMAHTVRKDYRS
T1 sequence (P27986 whole entry partner): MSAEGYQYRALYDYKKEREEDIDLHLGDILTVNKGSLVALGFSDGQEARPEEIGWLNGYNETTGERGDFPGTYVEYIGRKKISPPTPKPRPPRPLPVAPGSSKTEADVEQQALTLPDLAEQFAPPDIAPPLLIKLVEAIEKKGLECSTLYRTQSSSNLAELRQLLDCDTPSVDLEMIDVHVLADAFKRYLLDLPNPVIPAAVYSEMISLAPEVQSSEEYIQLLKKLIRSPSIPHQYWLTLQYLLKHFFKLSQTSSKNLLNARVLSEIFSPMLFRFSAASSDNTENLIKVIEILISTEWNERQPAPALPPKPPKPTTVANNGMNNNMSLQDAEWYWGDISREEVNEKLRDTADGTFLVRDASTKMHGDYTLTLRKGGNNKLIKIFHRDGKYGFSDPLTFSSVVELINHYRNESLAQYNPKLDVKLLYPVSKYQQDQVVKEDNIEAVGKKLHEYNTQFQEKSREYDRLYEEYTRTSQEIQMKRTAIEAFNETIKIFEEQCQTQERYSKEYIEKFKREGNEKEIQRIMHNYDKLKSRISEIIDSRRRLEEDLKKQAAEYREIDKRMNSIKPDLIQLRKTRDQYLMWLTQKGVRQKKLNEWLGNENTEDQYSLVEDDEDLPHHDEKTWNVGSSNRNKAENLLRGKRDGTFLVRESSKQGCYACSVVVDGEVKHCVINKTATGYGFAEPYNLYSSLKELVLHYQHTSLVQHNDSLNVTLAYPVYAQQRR
Text: Determination of % Inhibition and IC50 Values of Compounds in PI3Kβ Kinase Assay
PI3Kβ inhibitory activity of compounds of the present invention was quantified employing the HTRF based PI3K inhibition assay as described below.
(§1) As reagents for the kinase reaction itself and the quantification of the reaction product, the PI3-Kinase HTRF Assay kit from Millipore (#33-017) was used. With this kit the phosphatidylinositol 3,4,5-trisphosphate (PIP3) generated in the kinase reaction is detected by displacement of a biotinylated ligand from an energy transfer complex consisting of a Europium-labeled anti-GST monoclonal antibody, a GST-tagged PH domain, biotinylated PIP3 and Streptavidin-Allophycocyanin (APC).
(§2) For the assay 50 nL of a 80-fold concentrated solution of the test compound in DMSO was pipetted into a black low volume 384-well microtiter plate (Greiner Bio-One, Frickenhausen, Germany), 3 μl of a solution of PI3Kβ and phosphatidylinositol-4,5-bisphosphate (PIP2, 13.8 μM=>final conc. in 4 μl reaction volume=10 μM) in 1× reaction buffer (exact composition not disclosed by the vendor) were added and the mixture was incubated for 15 min at 22° C. to allow pre-binding of the test compounds to the enzyme before the start of the kinase reaction. The amount of PI3Kβ was chosen to have the enzyme reaction in the linear range and depended on the activity of the individual lot, typical concentrations in assay were in the range of 120 ng/mL. Then the kinase reaction was started by the addition of 1 μL of a solution of adenosine triphosphate (ATP, 40 μM=>final conc. in the 4 μl assay volume is 10 μM) in reaction buffer and the resulting mixture was incubated for a reaction time of 20 min at 22° C.
(§3) The reaction was stopped by the addition of 1 μL of an stop solution (containing the biotinylated PIP3 used as a tracer). Then 1 μL detection mix (containing a Europium-labeled anti-GST monoclonal antibody, a GST-tagged PH domain, and Streptavidin-Allophycocyanin) was added and resulting mixture was incubated for 3 h at 22° C. to allow the formation of complexes between the detection reagents and either the PIP3 generated in the kinase reaction, or the biotinylated PIP3 added with the stop solution. Subsequently the amount of energy transfer complex consisting of a Europium-labeled anti-GST monoclonal antibody, a GST-tagged PH domain, biotinylated PIP3 and Streptavidin-Allophycocyanin (APC) was evaluated by measurement of the resonance energy transfer from the Europium-labeled anti-GST monoclonal antibody to the Streptavidin-Allophycocyanin. Therefore, the fluorescence emissions at 620 nm and 665 nm after excitation at 350 nm were measured using a TR-FRET reader, e.g., a Pherastar (BMG Labtechnologies, Offenburg, Germany) or a Viewlux (Perkin-Elmer). The ratio of the emissions at 665 nm and at 622 nm were taken as the measure for the amount of biotinylated PIP3 bound to the GST-tagged PH domain, which is negatively correlated with the amount of PIP3 generated.

[2] = target: T2, PI3Kα (Homo sapiens, UniProt P42336); test: PI3Kα kinase assay (HTRF-based PI3K inhibition assay); format: biochemical; settings: for inhibition at 0.93 µM: 0.93 μM compound, read-out: PI3K alpha average % Inhibition at 0.93 μM; for IC50: complex of human p110α and human p85α, 10 μM ATP, 10 μM PIP2, read-out: average IC50 in the PI3K alpha biochemical assay
T2 construct: N-terminal His6-tagged recombinant full-length human p110α; His6 (N); purchased Millipore 14-602; host or cells: baculovirus infected Sf21 insect cells
T2 sequence (P42336 whole entry): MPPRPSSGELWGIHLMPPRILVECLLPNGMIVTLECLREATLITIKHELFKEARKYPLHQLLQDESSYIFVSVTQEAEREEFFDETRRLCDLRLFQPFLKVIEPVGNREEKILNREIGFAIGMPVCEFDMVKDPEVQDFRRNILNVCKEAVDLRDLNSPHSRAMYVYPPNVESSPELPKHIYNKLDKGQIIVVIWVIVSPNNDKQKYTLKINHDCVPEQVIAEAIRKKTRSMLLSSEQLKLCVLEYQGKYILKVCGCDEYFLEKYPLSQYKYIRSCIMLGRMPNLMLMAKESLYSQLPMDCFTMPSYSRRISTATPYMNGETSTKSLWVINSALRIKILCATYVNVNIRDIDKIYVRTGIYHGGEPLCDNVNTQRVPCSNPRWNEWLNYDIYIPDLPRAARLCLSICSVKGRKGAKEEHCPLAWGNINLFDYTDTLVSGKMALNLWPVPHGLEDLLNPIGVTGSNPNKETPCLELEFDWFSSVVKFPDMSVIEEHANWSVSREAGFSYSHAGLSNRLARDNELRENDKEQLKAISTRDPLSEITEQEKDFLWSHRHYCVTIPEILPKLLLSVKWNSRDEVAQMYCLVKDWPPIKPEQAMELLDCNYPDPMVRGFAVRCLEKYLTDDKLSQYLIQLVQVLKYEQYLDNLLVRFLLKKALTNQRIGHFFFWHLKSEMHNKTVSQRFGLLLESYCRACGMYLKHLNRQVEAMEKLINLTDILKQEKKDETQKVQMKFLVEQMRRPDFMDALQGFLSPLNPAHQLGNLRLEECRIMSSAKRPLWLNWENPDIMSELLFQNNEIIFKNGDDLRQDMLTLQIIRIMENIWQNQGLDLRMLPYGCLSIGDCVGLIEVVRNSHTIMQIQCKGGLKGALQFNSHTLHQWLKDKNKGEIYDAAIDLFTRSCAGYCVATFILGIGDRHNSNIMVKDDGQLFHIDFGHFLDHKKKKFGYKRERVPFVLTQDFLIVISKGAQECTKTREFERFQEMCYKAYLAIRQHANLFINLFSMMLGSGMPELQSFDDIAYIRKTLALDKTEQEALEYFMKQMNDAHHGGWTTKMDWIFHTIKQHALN
T2 sequence (P27986 whole entry partner): as the sequence (P27986 whole entry partner) above
Text: Determination of % Inhibition and IC50 Values of Compounds in PI3Kα Kinase Assay
PI3Kα inhibitory activity of compounds of the present invention was quantified employing the HTRF-based PI3K inhibition assay as described below.
as §1
as §2, with “Germany), 3 μL of a” for “Germany), 3 μl of a”, “solution of PI3Kα and phosphatidylinositol-4,5-bisphosphate” for “solution of PI3Kβ and phosphatidylinositol-4,5-bisphosphate”, “amount of PI3Kα was chosen” for “amount of PI3Kβ was chosen”, “range of 90 ng/mL. Then” for “range of 120 ng/mL. Then”, “the 4 μL assay volume” for “the 4 μl assay volume”
as §3, with “as a tracer), then 1 μL” for “as a tracer). Then 1 μL”, “was incubated 3 h” for “was incubated for 3 h”, “stop solution. Subsequently, the amount” for “stop solution. Subsequently the amount”, “[…] was taken as” for “622 nm were taken as”, “PIP3 generated. […] Normally test compounds were tested on the same microtiter plate at 10 different concentrations in the range of 25 μM to 1.3 nM (25 μM, 8.3 μM, 2.8 μM, 0.93 μM, 0.31 μM, 103 nM, 34 nM, 11 nM, 3.8 nM and 1.3 nM, a dilution series prepared before the assay at the level of the 80-fold conc. stock solutions by serial 1:3 dilutions) in duplicate values for each concentration and […] values were calculated by a 4-parameter fit using in-house software.” for “PIP3 generated.”

| Compound | inhibition at 0.93 µM [1] [%] | IC50 [1] [nM] | PI3K beta average IC50/ PI3K alpha average IC50 [1] | inhibition at 0.93 µM [2] [%] | IC50 [2] [nM] |
| --- | --- | --- | --- | --- | --- |
| COc1c(OC[C@H](O)CN2CCOCC2)ccc2c1N=C(NC(=O)c1cccnc1)N1CCN=C21 [Example 2, N-(8-{[(2R)-2-hydroxy-3-(morpholin-4-yl)propyl]oxy}-7-methoxy-2,3-dihydroimidazo[1,2-c]quinazolin-5-yl)pyridine-3-carboxamide] | 94.4 |  |  |  |  |
| CC(C)N(C[C@@H](O)COc1ccc2c(c1OCCc1ccc(F)cc1)N=C(NC(=O)c1cccnc1)N1CCN=C21)C(C)C [Example 7, N-(8-{[(2R)-3-(dipropan-2-ylamino)-2-hydroxypropyl]oxy}-7-[2-(4-fluorophenyl)ethoxy]-2,3-dihydroimidazo[1,2-c]quinazolin-5-yl)pyridine-3-carboxamide] | 90 | 10 to 50 | 2.78 | 91.5 | < 10 |
| O=C(NC1=Nc2c(ccc(OCC(O)CN3CCOCC3)c2OCCc2ccc(F)cc2)C2=NCCN12)c1cccnc1 (stereo not shown) [Example 9, N-{7-[2-(4-Fluorophenyl)ethoxy]-8-[2-hydroxy-3-(morpholin-4-yl)propoxy]-2,3-dihydroimidazo[1,2-c]quinazolin-5-yl}pyridine-3-carboxamide] | 102 | < 10 | 0.63 | 98.8 | 10 to 50 |
| C[C@@H]1CN(C[C@@H](O)COc2ccc3c(c2OCCc2ccc(F)cc2)N=C(NC(=O)c2cccnc2)N2CCN=C32)C[C@H](C)O1 [Example 8, N-{8-({(2R)-3-[(2R,6S)-2,6-Dimethylmorpholin-4-yl]-2-hydroxypropyl}oxy)-7-[2-(4-fluorophenyl)ethoxy]-2,3-dihydroimidazo[1,2-c]quinazolin-5-yl}pyridine-3-carboxamide] | 96.7 | 10 to 50 | 2.28 | 99.9 | 10 to 50 |
| C[C@@H]1CN(C[C@@](C)(O)COc2ccc3c(c2OCCc2ccc(F)cc2)N=C(NC(=O)c2cccnc2)N2CCN=C32)C[C@H](C)O1 (relative stereo) [Example 12, rel-N-{8-({(2R)-3-[(2R,6S)-2,6-Dimethylmorpholin-4-yl]-2-hydroxy-2-methylpropyl}oxy)-7-[2-(4-fluorophenyl)ethoxy]-2,3-dihydroimidazo[1,2-c]quinazolin-5-yl}pyridine-3-carboxamide] | 100 | > 50 | 3.69 | 104 | 10 to 50 |
| COc1c(OC[C@](C)(O)CN2C[C@@H](C)O[C@@H](C)C2)ccc2c1N=C(NC(=O)c1cccnc1)N1CCN=C21 (relative stereo) [Example 10, rel-N-[8-({(2R)-3-[(2R,6S)-2,6-Dimethylmorpholin-4-yl]-2-hydroxy-2-methylpropyl}oxy)-7-methoxy-2,3-dihydroimidazo[1,2-c]quinazolin-5-yl]pyridine-3-carboxamide] | 81.6 | > 50 | 8.95 | 93.2 | < 10 |
| C[C@@H]1CN(C[C@@](C)(O)COc2ccc3c(c2OCCc2ccc(F)cc2)N=C(NC(=O)c2cnc(N)nc2)N2CCN=C32)C[C@H](C)O1 (relative stereo) [Example 11, rel-2-Amino-N-{8-({(2R)-3-[(2R,6S)-2,6-dimethylmorpholin-4-yl]-2-hydroxy-2-methylpropyl}oxy)-7-[2-(4-fluorophenyl)ethoxy]-2,3-dihydroimidazo[1,2-c]quinazolin-5-yl}pyrimidine-5-carboxamide] | 95.3 | 10 to 50 | 9.66 | 109 | < 10 |
